# Measurements from US6582947B1, “Medical use of gene and vector encoding a multisubstrate deoxyribonucleoside kinase” (BIO VICI, priority 1998, dated 2003).
# Like-named read-outs stand apart in the source and are kept apart here.
# What was measured:
# deoxyguanosine kinase = target: T1, deoxyguanosine kinase (Homo sapiens, UniProt Q16854); conditions: cited from earlier work
# T1 sequence (Q16854 40-277): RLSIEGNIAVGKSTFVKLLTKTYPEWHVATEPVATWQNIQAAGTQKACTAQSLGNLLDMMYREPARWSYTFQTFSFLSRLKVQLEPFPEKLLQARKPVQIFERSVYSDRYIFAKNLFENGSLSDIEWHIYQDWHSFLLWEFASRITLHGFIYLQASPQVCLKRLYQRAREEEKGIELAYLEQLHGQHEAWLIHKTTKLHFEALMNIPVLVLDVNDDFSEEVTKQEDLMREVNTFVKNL
# HSV-1 TK [1] = target: T2, HSV-1 TK (Human herpesvirus 1, UniProt P0DTH5)
# T2 sequence (P0DTH5 whole entry): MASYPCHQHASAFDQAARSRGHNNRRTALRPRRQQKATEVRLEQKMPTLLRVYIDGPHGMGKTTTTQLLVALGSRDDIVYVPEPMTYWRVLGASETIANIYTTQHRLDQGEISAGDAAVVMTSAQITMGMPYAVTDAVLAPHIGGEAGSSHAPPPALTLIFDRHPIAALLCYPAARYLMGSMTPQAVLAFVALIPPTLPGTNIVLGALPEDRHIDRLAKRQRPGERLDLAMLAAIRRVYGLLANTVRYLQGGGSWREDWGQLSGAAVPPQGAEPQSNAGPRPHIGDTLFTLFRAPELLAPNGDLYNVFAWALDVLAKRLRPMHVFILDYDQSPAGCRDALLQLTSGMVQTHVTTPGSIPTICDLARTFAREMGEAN
# Protocol: (§1) The competion experiments were carried out in the following way: The standard reaction mixture contained 2.5 mM MgCl2, 10 mM dithio threitol, 1 mg/ml bovine serum albumin, 2.5 mM ATP, 10 mM NaF, 2 μM methyl-^3H-thymidine, an appropriate amount of a nucleoside analog and the multisubstrate deoxyribonucleoside kinase in an amount resulting in a linear conversion of the substrate, in a total reaction mixture of 50 μl of 50 mM Tris-HCl, pH 8.0. The reaction mixture was incubated at 37° C. for 30 min, and the reaction was terminated by spotting on to DE-81 discs (Whatman). The discs were instantly immersed and washed in ethanol (70%). The filters were dried and assayed for radioactivity in a tuluene-based scintillant.
# HSV-TK = conditions: cited from earlier work
# HSV-1 TK [2] = target: T2, HSV-1 TK; assay: biochemical
# Protocol: as §1
# recombinant Dm-dNK = target: T3, recombinant Dm-dNK (Drosophila melanogaster, UniProt Q9XZT6); assay: Phosphoryl transfer assay, substrate specificity of recombinant Dm-dNK; conditions: naturally occurring nucleosides
# T3 sequence (Q9XZT6 1-250): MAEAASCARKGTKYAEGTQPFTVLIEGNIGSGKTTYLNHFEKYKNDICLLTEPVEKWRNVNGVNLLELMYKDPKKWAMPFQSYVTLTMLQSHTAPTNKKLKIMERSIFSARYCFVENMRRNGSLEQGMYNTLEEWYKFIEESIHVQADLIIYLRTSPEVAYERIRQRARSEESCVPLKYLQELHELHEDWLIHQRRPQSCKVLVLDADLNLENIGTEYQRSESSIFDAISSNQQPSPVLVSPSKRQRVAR
# Protocol: A phosphor transferase assay was used to determine the substrate specificity of the putative deoxyribonucleoside kinase. […] The samples were incubated 30 min at 37° C. 2 μl of the reaction mixtures were spotted on poly(ethyleneimine) cellulose F thin layer chromatography sheets (Merck Inc.) and the nucleotide separated in a buffer containing NH4OH:isobutyric acid:dH2O (1:66:33). The sheets were autoradiographed using phosphoimaging plates (BAS 1000, Fujix).
Compound,phosphorylation by deoxyguanosine kinase (in words) (deoxyguanosine kinase),IC50 (HSV-1 TK [1]) [µM],phosphorylation by HSV-TK (in words) (HSV-TK),IC50 (HSV-1 TK [2]) [µM],phosphorylation by the enzyme (in words) (recombinant Dm-dNK)
Nc1ccn(C2CSC(CO)O2)c(=O)n1 (stereo not shown) [3TC],does not phosphorylate,> 1000,cannot phosphorylate,–,–
"Nc1ccn([C@@H]2O[C@H](CO)[C@@H](O)[C@@H]2O)c(=O)n1 [AraC, 1-β-D-arabinofuranosylcytosine]",–,–,cannot phosphorylate,> 1000,–
"O=c1[nH]c(=O)n([C@H]2C[C@H](O)[C@@H](CO)O2)cc1/C=C/Br [BVDU, (E)-5-(2-bromovinyl)-2′-deoxyuridine]",does not phosphorylate,–,–,3,–
"O=c1[nH]c(=O)n([C@@H]2O[C@H](CO)[C@@H](O)[C@@H]2O)cc1/C=C/Br [BVaraU, (E)-5-(2-bromovinyl)-1-β-D-arabinofuranosyl-uracil]",does not phosphorylate,–,–,4,–
"Nc1nc(Cl)nc2c1ncn2[C@H]1C[C@H](O)[C@@H](CO)O1 [CdA, 2-chloro-2′-deoxyadenosine]",–,–,cannot phosphorylate,> 1000,–
"O=c1[nH]c(=O)n([C@@H]2O[C@H](CO)[C@@H](O)[C@@H]2F)cc1I [FIAU, 1-(2-deoxy-2-fluoro-β-D-arabinofuranosyl)-5-iodouracil]",–,–,–,2,–
"O=c1[nH]c(=O)n([C@H]2C[C@H](O)[C@@H](CO)O2)cc1F [FdU, 5-fluorodeoxyuridine]",–,–,–,58,–
"Nc1ccn([C@@H]2O[C@H](CO)[C@@H](O)C2(F)F)c(=O)n1 [dFdC, 2′,2′-difluorodeoxycytidine]",does not phosphorylate,–,cannot phosphorylate,> 1000,–
"Nc1ccn([C@H]2CC[C@@H](CO)O2)c(=O)n1 [ddC, 2′,3′-dideoxycytidine]",does not phosphorylate,–,cannot phosphorylate,> 1000,–
Nc1ncnc2c1ncn2[C@H]1C[C@H](O)[C@@H](CO)O1 [deoxyadenosine],–,–,–,–,efficiently phosphorylated
Nc1ccn([C@H]2C[C@H](O)[C@@H](CO)O2)c(=O)n1 [deoxycytidine],–,–,–,–,efficiently phosphorylated
Nc1nc2c(ncn2[C@H]2C[C@H](O)[C@@H](CO)O2)c(=O)[nH]1 [deoxyguanosine],–,–,–,–,efficiently phosphorylated
